Ends that are not written are not given here.
Legend:
[1] = system: morphine tolerant (addicted) animals; assay: Naloxone-precipitated narcotic withdrawal (withdrawal jumping) in morphine pellet-implanted animals; assay type: in vivo, mice
Method: Morphine tolerance was established by implanting morphine pellets, 75 mg base, subcutaneously by the method of Way et al., J. Pharmac. Exp. Ther., 167, pp. 1-8 (1969), incorporated herein by reference. The drug used was morphine sulfate (Mallinckrodt Chemical Works, St. Louis, Mo.). The ED50 values, their 95% confidence limits and significance of the potency ratio between two ED50. values were determined by the method of Litchfield and Wilcoxon, J. Pharmac. Exp. Ther., 96, 99-113 (1949), incorporated herein by reference.
The morphine tolerant (addicted) animals had pellets implanted for three days. The animals were then challenged with naloxone doses (while the morphine pellet remained in place). […] Table 1 summarizes the data for the control animals and for groups of animals treated with three different peptides. Each peptide was in a dose of 5 μmol/kg i.v. before administration of the naloxone.
However, when any of the three peptides shown in Table 1 was administered five minutes before administration of the naloxone, then much more naloxone was needed to precipitate the animal into a state of narcotic withdrawal. This means that each of the three peptides shown in Table 1 caused the addicted animal to be not as dependent on morphine as it would be without such pretreatment.
The animals and test procedures used were analogous to those described in Example 1. […]

[2] = system: morphine tolerant (that is, addicted) mice; assay: Tail-flick antinociceptive activity of morphine in morphine tolerant animals; assay type: in vivo; details: control 2: addicted animals, no peptide
Method: (§1) Analgesia was measured by the tail-flick method of D'Amour and Smith, J. Pharmac. Exp. Ther. , 72, pp. 74-79 (1941), incorporated herein by reference, as modified by Tulunay and Takemori, J. Pharmac. Exp. Ther., 190, pp. 395-400 (1974), incorporated herein by reference. For ED50 (e.g., effective does for 50% of the test group) determinations, the animals' responses were made quantal by establishing an endpoint which represented a significant increase in reaction time. The endpoint was an increase in reaction time of an individual animal of greater than 3 SD (e.g., standard deviation) of the control mean reaction time for all animals used in the assay. The usual control mean reaction time was 3.1±0.05 sec. Nonresponding animals were removed from the heat stimulus when reaction time exceeded 10 sec. to avoid tail damage.
(§2) Drugs were injected 30 minutes prior to testing, unless otherwise indicated. Morphine was injected subcutaneously (s.c.) whereas the peptides were injected (i.v.) in […] saline.
(§3) Morphine tolerance was established by implanting morphine pellets, 75 mg base, subcutaneously by the method of Way et al., J. Pharmac. Exp. Ther., 167, pp. 1-8 (1969), incorporated herein by reference. The drug used was morphine sulfate (Mallinckrodt Chemical Works, St. Louis, Mo.). […]

[3] = system: naive, unaddicted (that is, normal) animals; assay: Tail-flick antinociceptive activity of morphine in naive animals; assay type: in vivo, mice; details: control 1: naive, no peptide
Method: as §1, §2, §3

[4] = system: macrophage-colony stimulating factor; details: mice treated with chronic morphine; cited from earlier work
[5] = system: hosts tolerant to narcotic analgesic; details: cited from earlier work
[6] = system: opioid receptor; details: cited from earlier work

## C=CCN1CC[C@]23c4c5ccc(O)c4O[C@H]2C(=O)CC[C@@]3(O)[C@H]1C5 [Naloxone, naloxone]
[1]; Mus musculus, control addicted animals, no peptide (base line)
  ED50: 79 µmol/kg

## CN1CC[C@]23c4c5ccc(O)c4O[C@H]2[C@@H](O)C=C[C@H]3[C@H]1C5 [Morphine, morphine]
[2]; relative to naive control
  Tolerance Index: 8.5 (5.7-12.--)
[2]; tail flick
  Morphine ED50: 55.6 (42.6-73.5) μmol/kg s.c.
[3]
  Morphine ED50: 6.5 (5.0-8.9) μmol/kg s.c.

## Tyr-Gly-Gly-Phe-Leu-Arg-Arg-Ile-Arg-Pro-Lys-Leu-Lys (YGGFLRRIRPKLK) [SEQ ID NO:2]
[4]
  Block of opioid inhibition of macrophage-colony stimulating factor: block the opioid inhibition of macrophage-colony stimulating factor of morphine in a dose-dependent manner
[5]
  Effect on analgesic effect of narcotic analgesic: potentiates the analgesic effect in tolerant hosts

## Tyr-Gly-Gly-Phe-Leu-Arg-Arg-Ile-Arg-Pro (YGGFLRRIRP-NH2) [SEQ ID NO:3]
[4]
  Block of opioid inhibition of macrophage-colony stimulating factor: block the opioid inhibition of macrophage-colony stimulating factor of morphine in a dose-dependent manner

## GFLRRIRPKLK [Dyn (3-13), Gly-Phe-Leu-Arg-Arg-Ile-Arg-Pro-Lys-Leu-Lys]
[1]; Example 3
  Observed behaviour of treated animals: lethargic and exhibited partial paralysis of their hind quarters

## Gly-Gly-Phe-Leu-Arg-Arg-Ile-Arg-Pro-Lys-Leu-Lys [des-Tyr Dyn A (1-13)]
[6]
  Competition in assays with various ligands: did not compete at all

Source: patent US5807827A, “Des-Tyr dynorphin analogues” (Des-Tyr Dynorphin Partnership, priority 1997, dated 1998)
